Test results reported in ChEMBL document CHEMBL4622945, “Synthesis and antiproliferative activity of C- and N-terminal analogues of culicinin D” (Bioorg Med Chem Lett, 2020).
Square brackets hold non-standard residues; d marks the D form. Peptide text beside a SMILES is read from it. * marks the point of attachment. NH((S)CH(Me)CH2NHC2H4OH) = C[C@@H](CNCCO)N*; Alaψ(CH2NMeCH2CH2OH) = C[C@@H](CN(C)CCO)N*; NH((S)CH(Me)CH2NMe2) = C[C@@H](CN(C)C)N*; NH((S)CH(CH3)CH2NHMe) = CNC[C@H](C)N*; Gly(octyl) = CCCCCCCC[C@H](N)C(=O)O; X5 = C[C@@H](N*)[C@@H](O)c1ccccc1; Hyp = O=C(O)[C@@H]1C[C@@H](O)CN1; Cha = N[C@@H](CC1CCCCC1)C(=O)O; Phe(ol) = N[C@H](CO)Cc1ccccc1; Lauroyl = CCCCCCCCCCCC(=O)*; Decanoyl = CCCCCCCCCC(=O)*; Pip = O=C(O)[C@@H]1CCCCN1; X1 = C[C@@H](CN1CCNCC1)N*; X2 = C[C@@H](CN1CCOCC1)N*; Octanoyl = CCCCCCCC(=O)*; Hexanoyl = CCCCCC(=O)*; Alaol = C[C@@H](CO)N*; NHCH2CH2NHMe = CNCCN*; Aib = CC(C)(N)C(=O)O; X3 = C[C@H](CNCCO)N*; Butyryl = CCCC(=O)*; NHCH2CH2OH = OCCN*; βAla = NCCC(=O)O; X4 = OCCNCCN*

What was measured:
Format in all cases: functional, cell-based
MDA-MB-468 = test: Antiproliferative activity against human MDA-MB-468 cells assessed as reduction in cell growth by SRB assay
SK-BR-3 = test: Antiproliferative activity against human SKBR3 cells assessed as reduction in cell growth by SRB assay
T47D = test: Antiproliferative activity against human T47D cells assessed as reduction in cell growth by SRB assay
NCI-H460 = test: Antiproliferative activity against human NCI-H460 cells assessed as reduction in cell growth by SRB assay

| Compound | IC50 (MDA-MB-468) [nM] | IC50 (SK-BR-3) [nM] | IC50 (T47D) [nM] | IC50 (NCI-H460) [nM] |
| --- | --- | --- | --- | --- |
| CCCCCCCC[C@H](NC(=O)C(C)(C)NC(=O)C(C)(C)NC(=O)[C@H](CC1CCCCC1)NC(=O)[C@@H]1CCCN1C(C)=O)C(=O)N[C@@H](CC(C)C)C(=O)NC(C)(C)C(=O)N[C@@H](CC(C)C)C(=O)NCCC(=O)N[C@@H](C)CNCCO (Ac-P[Cha][Aib][Aib][Gly(octyl)]L[Aib]L[βAla]-{NH((S)CH(Me)CH2NHC2H4OH)}) | 13 | 52 | 15 | 11 |
| CCCCCCCC[C@H](NC(=O)C(C)(C)NC(=O)C(C)(C)NC(=O)[C@H](CC1CCCCC1)NC(=O)[C@H](C)NC(=O)CCC)C(=O)N[C@@H](CC(C)C)C(=O)NC(C)(C)C(=O)N[C@@H](CC(C)C)C(=O)NCCC(=O)N[C@@H](C)CNCCO (Butyryl-A[Cha][Aib][Aib][Gly(octyl)]L[Aib]L[βAla]-{NH((S)CH(Me)CH2NHC2H4OH)}) | 3 | 10 | 5 | 2 |
| CCCCCCCC[C@H](NC(=O)C(C)(C)NC(=O)C(C)(C)NC(=O)[C@H](CC1CCCCC1)NC(=O)[C@@H]1CCCN1C(=O)CCC)C(=O)N[C@@H](CC(C)C)C(=O)NC(C)(C)C(=O)N[C@@H](CC(C)C)C(=O)NCCC(=O)N[C@@H](C)CN1CCNCC1 (Butyryl-P[Cha][Aib][Aib][Gly(octyl)]L[Aib]L[βAla]-X1) | > 1000 | > 1000 | > 1000 | > 1000 |
| CCCCCCCC[C@H](NC(=O)C(C)(C)NC(=O)C(C)(C)NC(=O)[C@H](CC1CCCCC1)NC(=O)[C@@H]1CCCN1C(=O)CCC)C(=O)N[C@@H](CC(C)C)C(=O)NC(C)(C)C(=O)N[C@@H](CC(C)C)C(=O)NCCC(=O)N[C@@H](C)CN1CCOCC1 (Butyryl-P[Cha][Aib][Aib][Gly(octyl)]L[Aib]L[βAla]-X2) | 59 | 99 | 36 | 34 |
| CCCCCCCC[C@H](NC(=O)C(C)(C)NC(=O)C(C)(C)NC(=O)[C@H](CC1CCCCC1)NC(=O)[C@@H]1CCCN1C(=O)CCC)C(=O)N[C@@H](CC(C)C)C(=O)NC(C)(C)C(=O)N[C@@H](CC(C)C)C(=O)NCCC(=O)N[C@H](C)CNCCO (Butyryl-P[Cha][Aib][Aib][Gly(octyl)]L[Aib]L[βAla]-X3) | 31 | 205 | 31 | 50 |
| CCCCCCCC[C@H](NC(=O)C(C)(C)NC(=O)C(C)(C)NC(=O)[C@H](CC1CCCCC1)NC(=O)[C@@H]1CCCN1C(=O)CCC)C(=O)N[C@@H](CC(C)C)C(=O)NC(C)(C)C(=O)N[C@@H](CC(C)C)C(=O)NCCC(=O)N[C@H](C)[C@@H](O)c1ccccc1 (Butyryl-P[Cha][Aib][Aib][Gly(octyl)]L[Aib]L[βAla]-X5) | 242 | 344 | 471 | 89 |
| CCCCCCCC[C@H](NC(=O)C(C)(C)NC(=O)C(C)(C)NC(=O)[C@H](CC1CCCCC1)NC(=O)[C@@H]1CCCN1C(=O)CCC)C(=O)N[C@@H](CC(C)C)C(=O)NC(C)(C)C(=O)N[C@@H](CC(C)C)C(=O)NCCC(=O)N[C@@H](C)CN(C)CCO (Butyryl-P[Cha][Aib][Aib][Gly(octyl)]L[Aib]L[βAla]-{Alaψ(CH2NMeCH2CH2OH)}) | 2 | 8 | 3 | 2 |
| CCCCCCCC[C@H](NC(=O)C(C)(C)NC(=O)C(C)(C)NC(=O)[C@H](CC1CCCCC1)NC(=O)[C@@H]1CCCN1C(=O)CCC)C(=O)N[C@@H](CC(C)C)C(=O)NC(C)(C)C(=O)N[C@@H](CC(C)C)C(=O)NCCC(=O)N[C@H](CO)Cc1ccccc1 (Butyryl-P[Cha][Aib][Aib][Gly(octyl)]L[Aib]L[βAla][Phe(ol)]) | 144 | 178 | 247 | 45 |
| CCCCCCCC[C@H](NC(=O)C(C)(C)NC(=O)C(C)(C)NC(=O)[C@H](CC1CCCCC1)NC(=O)[C@@H]1C[C@@H](O)CN1C(=O)CCC)C(=O)N[C@@H](CC(C)C)C(=O)NC(C)(C)C(=O)N[C@@H](CC(C)C)C(=O)NCCC(=O)N[C@@H](C)CNCCO (Butyryl-[Hyp][Cha][Aib][Aib][Gly(octyl)]L[Aib]L[βAla]-{NH((S)CH(Me)CH2NHC2H4OH)}) | 37 | 124 | 38 | 40 |
| CCCCCCCC[C@H](NC(=O)C(C)(C)NC(=O)C(C)(C)NC(=O)[C@H](CC1CCCCC1)NC(=O)[C@@H]1CCCCN1C(=O)CCC)C(=O)N[C@@H](CC(C)C)C(=O)NC(C)(C)C(=O)N[C@@H](CC(C)C)C(=O)NCCC(=O)N[C@@H](C)CNCCO (Butyryl-[Pip][Cha][Aib][Aib][Gly(octyl)]L[Aib]L[βAla]-{NH((S)CH(Me)CH2NHC2H4OH)}) | 11 | 34 | 11 | 9 |
| CCCCCCCCCC(=O)N1CCC[C@H]1C(=O)N[C@@H](CC1CCCCC1)C(=O)NC(C)(C)C(=O)NC(C)(C)C(=O)N[C@@H](CCCCCCCC)C(=O)N[C@@H](CC(C)C)C(=O)NC(C)(C)C(=O)N[C@@H](CC(C)C)C(=O)NCCC(=O)N[C@@H](C)CNCCO (Decanoyl-P[Cha][Aib][Aib][Gly(octyl)]L[Aib]L[βAla]-{NH((S)CH(Me)CH2NHC2H4OH)}) | 6 | 20 | 13 | 9 |
| CCCCCCCC[C@H](NC(=O)C(C)(C)NC(=O)C(C)(C)NC(=O)[C@H](CC1CCCCC1)NC(=O)[C@@H]1CCCN1)C(=O)N[C@@H](CC(C)C)C(=O)NC(C)(C)C(=O)N[C@@H](CC(C)C)C(=O)NCCC(=O)N[C@@H](C)CNCCO (H-P[Cha][Aib][Aib][Gly(octyl)]L[Aib]L[βAla]-{NH((S)CH(Me)CH2NHC2H4OH)}) | 10 | 57 | 13 | 9 |
| CCCCCCCC[C@H](NC(=O)C(C)(C)NC(=O)C(C)(C)NC(=O)[C@H](CC1CCCCC1)NC(=O)[C@@H]1CCCN1C(=O)CCCCC)C(=O)N[C@@H](CC(C)C)C(=O)NC(C)(C)C(=O)N[C@@H](CC(C)C)C(=O)NCCC(=O)N[C@@H](C)CNCCO (Hexanoyl-P[Cha][Aib][Aib][Gly(octyl)]L[Aib]L[βAla]-{NH((S)CH(Me)CH2NHC2H4OH)}) | 5 | 18 | 7 | 4 |
| CCCCCCCCCCCC(=O)N1CCC[C@H]1C(=O)N[C@@H](CC1CCCCC1)C(=O)NC(C)(C)C(=O)NC(C)(C)C(=O)N[C@@H](CCCCCCCC)C(=O)N[C@@H](CC(C)C)C(=O)NC(C)(C)C(=O)N[C@@H](CC(C)C)C(=O)NCCC(=O)N[C@@H](C)CNCCO (Lauroyl-P[Cha][Aib][Aib][Gly(octyl)]L[Aib]L[βAla]-{NH((S)CH(Me)CH2NHC2H4OH)}) | 23 | 73 | 63 | 37 |
| CCCCCCCC[C@H](NC(=O)C(C)(C)NC(=O)C(C)(C)NC(=O)[C@H](CC1CCCCC1)NC(=O)[C@@H]1CCCN1C(=O)CCCCCCC)C(=O)N[C@@H](CC(C)C)C(=O)NC(C)(C)C(=O)N[C@@H](CC(C)C)C(=O)NCCC(=O)N[C@@H](C)CNCCO (Octanoyl-P[Cha][Aib][Aib][Gly(octyl)]L[Aib]L[βAla]-{NH((S)CH(Me)CH2NHC2H4OH)}) | 4 | 15 | 7 | 4 |

The next lines start with the values.

| IC50 (MDA-MB-468) [nM] | IC50 (SK-BR-3) [nM] | IC50 (T47D) [nM] | IC50 (NCI-H460) [nM] | Compound |
| --- | --- | --- | --- | --- |
| 336 | 509 | 490 | 130 | CCCCCCCC[C@H](NC(=O)C(C)(C)NC(=O)C(C)(C)NC(=O)[C@H](CC1CCCCC1)NC(=O)[C@@H]1CCCN1C(=O)CCC)C(=O)N[C@@H](CC(C)C)C(=O)NC(C)(C)C(=O)N[C@@H](CC(C)C)C(=O)NCCC(=O)N[C@@H](C)CO (Butyryl-P[Cha][Aib][Aib][Gly(octyl)]L[Aib]L[βAla]-Alaol) |
| 5 | 27 | 8 | 10 | CCCCCCCC[C@H](NC(=O)C(C)(C)NC(=O)C(C)(C)NC(=O)[C@H](CC1CCCCC1)NC(=O)[C@@H]1CCCN1C(=O)CCC)C(=O)N[C@@H](CC(C)C)C(=O)NC(C)(C)C(=O)N[C@@H](CC(C)C)C(=O)NCCC(=O)NCCNC (Butyryl-P[Cha][Aib][Aib][Gly(octyl)]L[Aib]L[βAla]-NHCH2CH2NHMe) |
| 363 | 512 | 767 | 223 | CCCCCCCC[C@H](NC(=O)C(C)(C)NC(=O)C(C)(C)NC(=O)[C@H](CC1CCCCC1)NC(=O)[C@@H]1CCCN1C(=O)CCC)C(=O)N[C@@H](CC(C)C)C(=O)NC(C)(C)C(=O)N[C@@H](CC(C)C)C(=O)NCCC(=O)NCCO (Butyryl-P[Cha][Aib][Aib][Gly(octyl)]L[Aib]L[βAla]-NHCH2CH2OH) |
| > 1000 | > 1000 | > 1000 | > 1000 | CCCCCCCC[C@H](NC(=O)C(C)(C)NC(=O)C(C)(C)NC(=O)[C@H](CC1CCCCC1)NC(=O)[C@@H]1CCCN1C(=O)CCC)C(=O)N[C@@H](CC(C)C)C(=O)NC(C)(C)C(=O)N[C@@H](CC(C)C)C(=O)NCCC(=O)O (Butyryl-P[Cha][Aib][Aib][Gly(octyl)]L[Aib]L[βAla]-OH) |
| 10 | 67 | 15 | 17 | CCCCCCCC[C@H](NC(=O)C(C)(C)NC(=O)C(C)(C)NC(=O)[C@H](CC1CCCCC1)NC(=O)[C@@H]1CCCN1C(=O)CCC)C(=O)N[C@@H](CC(C)C)C(=O)NC(C)(C)C(=O)N[C@@H](CC(C)C)C(=O)NCCC(=O)NCCNCCO (Butyryl-P[Cha][Aib][Aib][Gly(octyl)]L[Aib]L[βAla]-X4) |
| 3 | 13 | 5 | 3 | CCCCCCCC[C@H](NC(=O)C(C)(C)NC(=O)C(C)(C)NC(=O)[C@H](CC1CCCCC1)NC(=O)[C@@H]1CCCN1C(=O)CCC)C(=O)N[C@@H](CC(C)C)C(=O)NC(C)(C)C(=O)N[C@@H](CC(C)C)C(=O)NCCC(=O)N[C@@H](C)CNC (Butyryl-P[Cha][Aib][Aib][Gly(octyl)]L[Aib]L[βAla]-{NH((S)CH(CH3)CH2NHMe)}) |
| 4 | 10 | 6 | 4 | CCCCCCCC[C@H](NC(=O)C(C)(C)NC(=O)C(C)(C)NC(=O)[C@H](CC1CCCCC1)NC(=O)[C@@H]1CCCN1C(=O)CCC)C(=O)N[C@@H](CC(C)C)C(=O)NC(C)(C)C(=O)N[C@@H](CC(C)C)C(=O)NCCC(=O)N[C@@H](C)CN(C)C (Butyryl-P[Cha][Aib][Aib][Gly(octyl)]L[Aib]L[βAla]-{NH((S)CH(Me)CH2NMe2)}) |
